Source: ChEMBL document CHEMBL4219081, “Discovery of 1,2,3,4-tetrahydropyrimido[1,2-a]benzimidazoles as novel class of corticotropin releasing factor 1 receptor antagonists” (Bioorg Med Chem, 2018)
≈ marks a conversion by molar mass, not a printed value.

How the values were obtained:
[1] = Lipophilicity, log D of the compound at pH 7.4; type: physicochemical; conditions: buffer
[2] = Solubility of the compound in JP2 buffer at pH 6.8 at 10 mmol/L; type: physicochemical
[3] = Oral bioavailability in rat at 1 mg/kg administered as cassette dose; type: ADME, organism-based; conditions: in vivo
[4] = Kinetic solubility in PBS; type: physicochemical; conditions: read-out: Kinetic_solubility
[5] = Oral bioavailability in rat at 5 mg/kg administered as cassette dose; type: ADME, organism-based; conditions: in vivo

| SMILES | logD [1] | solubility [2] [µg/mL] | bioavailability [3] [%] | solubility kinetic [4] [µg/mL] | bioavailability [5] [%] |
| --- | --- | --- | --- | --- | --- |
| CCC(c1ccc(Cl)c2nc3n(c12)CCCN3c1ccc(Cl)cc1Cl)n1ccnc1 (configuration not stated) | 3.53 |  |  |  |  |
| CCC(=O)c1ccc(Cl)c2nc3n(c12)CCCN3c1ccc(Cl)cc1Cl | 4.01 |  |  |  |  |
| CCN(CC)c1ccc(Cl)c2nc3n(c12)CCCN3c1ccc(Cl)cc1Cl | 5.25 | < 0.06 | 4.1 |  |  |
| CCC(OC)c1ccc(Cl)c2nc3n(c12)CCCN3c1ccc(Cl)cc1Cl (configuration not stated) | 4.38 |  |  |  |  |
| CCC(C#N)c1ccc(Cl)c2nc3n(c12)CCCN3c1ccc(Cl)cc1Cl (configuration not stated) | 3.69 |  |  |  |  |
| CCC(O)c1ccc(Cl)c2nc3n(c12)CCCN3c1ccc(Cl)cc1Cl (configuration not stated) | 3.57 |  |  |  |  |
| CCc1nc(C)nc(CC)c1N1CCCn2c1nc1c(Cl)ccc(C(OC(F)F)C(F)(F)F)c12 (racemic) | 3.52 | 46 (≈ 91.3 µM) |  |  |  |

Second part, the compound after the results:

| logD [1] | solubility [2] [µg/mL] | bioavailability [3] [%] | solubility kinetic [4] [µg/mL] | bioavailability [5] [%] | SMILES |
| --- | --- | --- | --- | --- | --- |
| 3.18 |  |  | 55 (≈ 112 µM) | 68 | COc1nc(C)c(N2CCCn3c2nc2c(Cl)ccc([C@@H](OC(F)F)C(F)(F)F)c23)c(C)n1 |
| 3.71 | 14 (≈ 27.6 µM) |  |  |  | COc1nc(C)nc(OC)c1N1CCCn2c1nc1c(Cl)ccc(C(OC(F)F)C(F)(F)F)c12 (racemic) |
| 3.21 | 37 (≈ 75.5 µM) |  |  |  | CCc1nc(C)c(N2CCCn3c2nc2c(Cl)ccc(C(OC(F)F)C(F)(F)F)c23)c(C)n1 (racemic) |
| 3.43 | 17 (≈ 35.7 µM) |  |  |  | COc1ccc(N2CCCn3c2nc2c(Cl)ccc(C(OC(F)F)C(F)(F)F)c23)c(C)n1 (racemic) |
| 3.08 | 54 (≈ 110 µM) |  |  |  | COc1nc(C)c(N2CCCn3c2nc2c(Cl)ccc(C(OC(F)F)C(F)(F)F)c23)c(C)n1 (racemic) |
| 2.87 | 71 (≈ 149 µM) |  |  |  | Cc1nc(C)c(N2CCCn3c2nc2c(Cl)ccc(C(OC(F)F)C(F)(F)F)c23)c(C)n1 (racemic) |
| 4.3 | < 0.09 |  |  |  | FC(F)OC(c1ccc(Cl)c2nc3n(c12)CCCN3c1ccc(Cl)cc1Cl)C(F)(F)F (racemic) |
| 3.76 | 1.5 (≈ 3.15 µM) |  |  |  | COc1ccc(N2CCCn3c2nc2c(Cl)ccc(C(OC(F)F)C(F)(F)F)c23)c(C)c1 (racemic) |
